Where a SMILES comes first, the peptide text is derived from it.
Columns and labels:
[1] = system: spleen cell subsets (cell surface antigens); assay: In vivo/ex vivo immunophenotyping in the spleen, mice treated 4 consecutive days; parameters: species or system C57BL/6 mice
Experimental: (§1) C57BL.backslash.6 mice are treated with 0, 50, 100, 200, and 300 mg/kg of drug (in saline) for 4 consecutive days. Blood is taken by cardiac puncture on day 5, and the lymphocytes are isolated from spleen in the following manner:
(§2) The spleen is aseptically removed and mashed by pressing against a steel strainer with a rubber plunger. The cell suspension is separated from the clumps by letting them settle at the bottom of the tube. The cell suspension is then separated on a Lymphocyte M layer and the interface is recovered and resuspended in media.
1. Immunophenotyping (blood and spleen)
Cell immunophenotyping is performed on blood and spleen. The following cell surface antigens are analyzed:
CD4 (T helper/inducer, binds class II-restricted T cells);
CD8 (cytotoxic T cells, CTL adhesion);
MAC-1 (monocyte/macrophage);
NK (natural killer cells);
CD45 (all leukocytes, protein tyrosine phosphatase).

T and B cells in spleen = assay: In vivo/ex vivo mitogenic proliferation of T and B cells (spleen); parameters: species or system C57BL/6 mice; details: FIGS. 1A-1D
Experimental: as §1, §2
2. Mitogenic proliferation of T and B cells (spleen)

NK cells = assay: Functional in vivo/ex vivo NK cell assay, spleen cells, effector:target ratio 100:1; parameters: species or system mice; details: for NK cell assay, % response of CTL: CTL = control
Experimental: as §1, §2
Important in immunosurveillance, NK cells are capable of lysing tumors, virus-infected or embryo-derived cells in vitro spontaneously without prior sensitization. Immunomodulators are evaluated using murine splenocytes and human peripheral blood mononuclear leukocytes.
Spleen cells were used to test for NK activity at a effector:target ratio of 100:1.

NCCCC[C@H](N)C(=O)N[C@@H](CC(N)=O)C(=O)N1CCC[C@H]1C(=O)N[C@@H](Cc1ccc(O)cc1)C(=O)O [PEPTIDE #1, H-Lys-Asn-Pro-Tyr-OH] (H-KNPY-OH)
B cell subset, relative percentage ([1]; 50 mg/kg): 11.60
CD4+ CD8+ cell subset, relative percentage ([1]; 50 mg/kg): 1.10
CD4+ CD8- cell subset, relative percentage ([1]; 50 mg/kg): 38.30
CD4+ CD11+ cell subset, relative percentage ([1]; 50 mg/kg): 0.17
CD4+ CD11- cell subset, relative percentage ([1]; 50 mg/kg): 18.47
CD4+ CD45+ cell subset, relative percentage ([1]; 50 mg/kg): 33.30
CD4+ CD45- cell subset, relative percentage ([1]; 50 mg/kg): 6.10
CD4- CD8+ cell subset, relative percentage ([1]; 50 mg/kg): 16.15
CD4- CD8- cell subset, relative percentage ([1]; 50 mg/kg): 44.45
CD4- CD11+ cell subset, relative percentage ([1]; 50 mg/kg): 1.20
CD4- CD11- cell subset, relative percentage ([1]; 50 mg/kg): 80.17
CD4- CD45+ cell subset, relative percentage ([1]; 50 mg/kg): 58.65
CD4- CD45- cell subset, relative percentage ([1]; 50 mg/kg): 1.95
CD8+ CD45+ cell subset, relative percentage ([1]; 50 mg/kg): 16.90
CD8+ CD45- cell subset, relative percentage ([1]; 50 mg/kg): 0.10
CD8- CD45+ cell subset, relative percentage ([1]; 50 mg/kg): 73.15
CD8- CD45- cell subset, relative percentage ([1]; 50 mg/kg): 9.85
CD45-8 cell subset, relative percentage ([1]; 50 mg/kg): 60.70
CD45- Th1 cell subset, relative percentage ([1]; 50 mg/kg): 39.10
NK+ CD3+ cell subset, relative percentage ([1]; 50 mg/kg): 4.70
NK+ CD3- cell subset, relative percentage ([1]; 50 mg/kg): 7.47
NK- CD3+ cell subset, relative percentage ([1]; 50 mg/kg): 42.80
NK- CD3- cell subset, relative percentage ([1]; 50 mg/kg): 45.10
B cell subset, relative percentage ([1]; 100 mg/kg): 14.97
CD4+ CD8+ cell subset, relative percentage ([1]; 100 mg/kg): 2.40
CD4+ CD8- cell subset, relative percentage ([1]; 100 mg/kg): 32.30
CD4+ CD11+ cell subset, relative percentage ([1]; 100 mg/kg): 0.20
CD4+ CD11- cell subset, relative percentage ([1]; 100 mg/kg): 18.23
CD4+ CD45+ cell subset, relative percentage ([1]; 100 mg/kg): 30.90
CD4+ CD45- cell subset, relative percentage ([1]; 100 mg/kg): 3.80
CD4- CD8+ cell subset, relative percentage ([1]; 100 mg/kg): 12.45
CD4- CD8- cell subset, relative percentage ([1]; 100 mg/kg): 52.85
CD4- CD11+ cell subset, relative percentage ([1]; 100 mg/kg): 1.53
CD4- CD11- cell subset, relative percentage ([1]; 100 mg/kg): 80.07
CD4- CD45+ cell subset, relative percentage ([1]; 100 mg/kg): 61.45
CD4- CD45- cell subset, relative percentage ([1]; 100 mg/kg): 3.85
CD8+ CD45+ cell subset, relative percentage ([1]; 100 mg/kg): 14.25
CD8+ CD45- cell subset, relative percentage ([1]; 100 mg/kg): 0.05
CD8- CD45+ cell subset, relative percentage ([1]; 100 mg/kg): 76.35
CD8- CD45- cell subset, relative percentage ([1]; 100 mg/kg): 9.35
CD45-8 cell subset, relative percentage ([1]; 100 mg/kg): 65.55
CD45- Th1 cell subset, relative percentage ([1]; 100 mg/kg): 34.55
NK+ CD3+ cell subset, relative percentage ([1]; 100 mg/kg): 4.40
NK+ CD3- cell subset, relative percentage ([1]; 100 mg/kg): 7.93
NK- CD3+ cell subset, relative percentage ([1]; 100 mg/kg): 41.50
NK- CD3- cell subset, relative percentage ([1]; 100 mg/kg): 46.20
B cell subset, relative percentage ([1]; 200 mg/kg): 16.33
CD4+ CD8+ cell subset, relative percentage ([1]; 200 mg/kg): 2.27
CD4+ CD8- cell subset, relative percentage ([1]; 200 mg/kg): 29.50
CD4+ CD11+ cell subset, relative percentage ([1]; 200 mg/kg): 0.20
CD4+ CD11- cell subset, relative percentage ([1]; 200 mg/kg): 20.03
CD4+ CD45+ cell subset, relative percentage ([1]; 200 mg/kg): 27.98
CD4+ CD45- cell subset, relative percentage ([1]; 200 mg/kg): 3.77
CD4- CD8+ cell subset, relative percentage ([1]; 200 mg/kg): 12.49
CD4- CD8- cell subset, relative percentage ([1]; 200 mg/kg): 40.94
CD4- CD11+ cell subset, relative percentage ([1]; 200 mg/kg): 1.53
CD4- CD11- cell subset, relative percentage ([1]; 200 mg/kg): 78.27
CD4- CD45+ cell subset, relative percentage ([1]; 200 mg/kg): 43.44
CD4- CD45- cell subset, relative percentage ([1]; 200 mg/kg): 2.31
CD8+ CD45+ cell subset, relative percentage ([1]; 200 mg/kg): 12.36
CD8+ CD45- cell subset, relative percentage ([1]; 200 mg/kg): 0.04
CD8- CD45+ cell subset, relative percentage ([1]; 200 mg/kg): 62.30
CD8- CD45- cell subset, relative percentage ([1]; 200 mg/kg): 7.32
CD45-8 cell subset, relative percentage ([1]; 200 mg/kg): 53.14
CD45- Th1 cell subset, relative percentage ([1]; 200 mg/kg): 31.64
NK+ CD3+ cell subset, relative percentage ([1]; 200 mg/kg): 5.27
NK+ CD3- cell subset, relative percentage ([1]; 200 mg/kg): 8.07
NK- CD3+ cell subset, relative percentage ([1]; 200 mg/kg): 44.33
NK- CD3- cell subset, relative percentage ([1]; 200 mg/kg): 42.33
B cell subset, relative percentage ([1]; 300 mg/kg): 14.60
CD4+ CD8+ cell subset, relative percentage ([1]; 300 mg/kg): 4.33
CD4+ CD8- cell subset, relative percentage ([1]; 300 mg/kg): 34.30
CD4+ CD11+ cell subset, relative percentage ([1]; 300 mg/kg): 0.53
CD4+ CD11- cell subset, relative percentage ([1]; 300 mg/kg): 20.53
CD4+ CD45+ cell subset, relative percentage ([1]; 300 mg/kg): 35.00
CD4+ CD45- cell subset, relative percentage ([1]; 300 mg/kg): 3.67
CD4- CD8+ cell subset, relative percentage ([1]; 300 mg/kg): 16.17
CD4- CD8- cell subset, relative percentage ([1]; 300 mg/kg): 45.20
CD4- CD11+ cell subset, relative percentage ([1]; 300 mg/kg): 2.23
CD4- CD11- cell subset, relative percentage ([1]; 300 mg/kg): 76.67
CD4- CD45+ cell subset, relative percentage ([1]; 300 mg/kg): 57.40
CD4- CD45- cell subset, relative percentage ([1]; 300 mg/kg): 3.97
CD8+ CD45+ cell subset, relative percentage ([1]; 300 mg/kg): 19.77
CD8+ CD45- cell subset, relative percentage ([1]; 300 mg/kg): 0.03
CD8- CD45+ cell subset, relative percentage ([1]; 300 mg/kg): 69.93
CD8- CD45- cell subset, relative percentage ([1]; 300 mg/kg): 10.30
CD45-8 cell subset, relative percentage ([1]; 300 mg/kg): 61.63
CD45- Th1 cell subset, relative percentage ([1]; 300 mg/kg): 38.43
NK+ CD3+ cell subset, relative percentage ([1]; 300 mg/kg): 9.47
NK+ CD3- cell subset, relative percentage ([1]; 300 mg/kg): 10.83
NK- CD3+ cell subset, relative percentage ([1]; 300 mg/kg): 41.10
NK- CD3- cell subset, relative percentage ([1]; 300 mg/kg): 38.63
change of relative percentage of CD8+CD45+ (cytotoxic T cells) subset (in words) ([1]; 200 and 300 mg/kg): significant increase
change of relative percentage of NK+CD3+ (NK cells) subset (in words) ([1]; 200 and 300 mg/kg): significant increase
activation of T and B cells in spleen in vivo/ex vivo (in words) (T and B cells in spleen): activate T and B cells
NK cell assay, % response of IL-2 (NK cells; 50 mg/kg): 48.34%
NK cell assay, Average (NK cells; 50 mg/kg): 2.52
NK cell assay, % response of CTL (NK cells; 50 mg/kg): 112.48%
NK cell assay, % response of IL-2 (NK cells; 100 mg/kg): 69.48%
NK cell assay, Average (NK cells; 100 mg/kg): 3.63
NK cell assay, % response of CTL (NK cells; 100 mg/kg): 161.66%
NK cell assay, % response of IL-2 (NK cells; 200 mg/kg): 53.13%
NK cell assay, Average (NK cells; 200 mg/kg): 2.77
NK cell assay, % response of CTL (NK cells; 200 mg/kg): 123.63%
NK cell assay, % response of IL-2 (NK cells; 300 mg/kg): 58.49%
NK cell assay, Average (NK cells; 300 mg/kg): 3.05
NK cell assay, % response of CTL (NK cells; 300 mg/kg): 136.11%

Reference: patent US5980913A, “Peptides having immunomodulatory activity” (Biochem Pharma, Inc., priority 1994, dated 1999)
